Laboratory results: patent US20180327367A1, “MACROCYCLIC BROAD SPECTRUM ANTIBIOTICS” (priority 2015, published 2018)
≈ marks a conversion by molar mass, not a printed value. Like-named read-outs stand apart in the source and are kept apart here.

How the values were obtained:
[1] = target: T1, SpsB (Staphylococcus aureus signal peptidase) (Staphylococcus aureus, UniProt P0A070); test: cell-based; assay type: biochemical; conditions: SpsB IC50, whole-cell S. aureus (USA300 background, overexpressing SpsB) as SpsB source; fluorogenic peptide substrate, kinetic read 30 min
T1 construct: This assay uses a suspension of Staphylococcus aureus cells as a source of SpsB instead of recombinant SpsB protein; endogenous in cells; host or cells: S. aureus, USA300 background, overexpressing SpsB (whole-cell suspension from frozen pellets)
Summary of the method: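 Whole S. aureus cells (USA300, overexpressing SpsB) in PBS with MgCl2, CaCl2 and 0.1% Tween-80 served as enzyme source, mixed with 20 μM stock of (Dabcyl)βAla-KPAKAAE(Edans) substrate before use. Fluorescence (ex 340/em 490 nm) read kinetically over 30 min. IC50 from reaction rate versus 11-point inhibitor concentration.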

[2] = system: Methicillin Resistant Staphylococcus aureus strain USA 300, NRS384; test: Minimum inhibitory concentration, broth micro-dilution (CLSI), S. aureus; assay type: cell-based; conditions: Staphylococcus aureus, MRSA / NRS 384 / USA300, 22 h, 35° C., 22 hours
Summary of the method: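 Colonies grown 20 hours at 35° C were suspended in cation-adjusted Mueller Hinton Broth with 0.002% Tween-80. Cells were then added to 2-fold compound dilutions starting at 4 or 0.5 μg/mL, at OD600 0.0005.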

[3] = system: Escherichia coli ATCC 25922; test: Minimum inhibitory concentration, broth micro-dilution (CLSI), E. coli; assay type: cell-based; conditions: Escherichia coli, ATCC25922, 22 h, 35° C., 22 hours
[4] = system: Escherichia coli MC4100 harboring the IMP4213 (E. coli IMP); test: microbe, parasite or virus in culture; assay type: cell-based; conditions: Escherichia coli, 22 h, read-out: MIC (μg/mL) E. coli IMP, E. coli MC4100 IMP4213, increased outer-membrane permeability; 35° C., 22 hours
Summary of the method: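 Broth micro-dilution per CLSI in cation-adjusted Mueller Hinton Broth with 0.002% Tween-80; E. coli MC4100 carries IMP4213, raising outer-membrane permeability. Compounds tested as 2-fold serial dilutions (10 concentrations) from 4 μg/mL (protocol 2) or 0.5 μg/mL (protocol 3); inoculum OD600 0.0005, 35° C for 22 hours.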

[5] = read-out: MIC (μg/mL) S. aureus, MRSA USA 300 NRS384
[6] = read-out: MIC (μg/mL) E. coli, E. coli ATCC 25922
[7] = MRSA USA 300 NRS384, read-out: MIC (μg/mL) S. aureus
[8] = E. coli ATCC 25922, read-out: MIC (μg/mL) E. coli

T1 sequence (P0A070 whole entry): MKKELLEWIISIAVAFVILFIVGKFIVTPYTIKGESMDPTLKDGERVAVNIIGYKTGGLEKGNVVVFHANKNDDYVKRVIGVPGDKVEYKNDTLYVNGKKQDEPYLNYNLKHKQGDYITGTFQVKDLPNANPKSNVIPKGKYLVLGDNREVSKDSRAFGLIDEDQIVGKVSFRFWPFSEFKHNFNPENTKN

Structure (SMILES)	IC50 [1] [nM]	MIC [2, 5] [µg/mL]	MIC [3, 6] [µg/mL]	MIC [4] [µg/mL]	MIC [2, 7] [µg/mL]	MIC [3, 8] [µg/mL]
CCCCCCCCCC(=O)N[C@H](C)C(=O)NCC(=O)N[C@@H](CCN)C(=O)N(C)[C@@H]1C(=O)N[C@@H](C)C(=O)N[C@H](C(=O)NCC#N)Cc2ccc(OCCN)c(c2)-c2cc1ccc2OCCN [Compound 366]	0.64	0.25 (≈ 0.272 µM)	48 (≈ 52.2 µM)	0.38 (≈ 0.413 µM)		
CCCCCCCCCC(=O)NCCC(=O)N[C@@H](CCN)C(=O)N(C)[C@@H]1C(=O)N[C@@H](C)C(=O)N[C@H](C(=O)NCC#N)Cc2ccc(OCCN)c(c2)-c2cc1ccc2OCCN [Compound 367]	0.88			0.13 (≈ 0.151 µM)	0.094 (≈ 0.109 µM)	12 (≈ 13.9 µM)
CCCCCCCCCNC(=O)CCC(=O)N[C@@H](CCN)C(=O)N(C)[C@@H]1C(=O)N[C@@H](C)C(=O)N[C@H](C(=O)NCC#N)Cc2ccc(OCCN)c(c2)-c2cc1ccc2OCCN [Compound 369]	0.47			0.063 (≈ 0.073 µM)	0.063 (≈ 0.073 µM)	4 (≈ 4.63 µM)
CCCCc1ccc(C(=O)NCC(=O)N[C@@H](CCN)C(=O)N(C)[C@@H]2C(=O)N[C@@H](C)C(=O)N[C@H](C(=O)NCC#N)Cc3ccc(OCCN)c(c3)-c3cc2ccc3OCCN)c(C)c1 [Compound 370]	1.1	0.19 (≈ 0.219 µM)	16 (≈ 18.4 µM)	0.13 (≈ 0.15 µM)		
CCCCc1ccc(C(=O)NCC(=O)NCC(=O)N[C@@H](CCN)C(=O)N(C)[C@@H]2C(=O)N[C@@H](C)C(=O)N[C@H](C(=O)NCC#N)Cc3ccc(OCCN)c(c3)-c3cc2ccc3OCCN)c(C)c1 [Compound 371]	1.3	0.25 (≈ 0.27 µM)	32 (≈ 34.6 µM)	0.5 (≈ 0.54 µM)		
CCCCCCCCCC(=O)NCC(=O)N[C@@H](CCN)C(=O)N(C)[C@@H]1C(=O)N[C@@H](C)C(=O)N[C@H](C(=O)NCC#N)Cc2ccc(OCCN)c(c2)-c2cc1ccc2OCCN [Compound 372]	0.47	0.13 (≈ 0.153 µM)	8 (≈ 9.42 µM)	0.094 (≈ 0.111 µM)		
CCCCCCCCCC(=O)N[C@@H](C)C(=O)N[C@@H](CCN)C(=O)N(C)[C@@H]1C(=O)N[C@@H](C)C(=O)N[C@H](C(=O)NCC#N)Cc2ccc(OCCN)c(c2)-c2cc1ccc2OCCN [Compound 373]	0.88	0.19 (≈ 0.22 µM)	4 (≈ 4.63 µM)	0.063 (≈ 0.073 µM)		
CCCCc1ccc(NC(=O)CCC(=O)N[C@@H](CCN)C(=O)N(C)[C@@H]2C(=O)N[C@@H](C)C(=O)N[C@H](C(=O)NCC#N)Cc3ccc(OCCN)c(c3)-c3cc2ccc3OCCN)c(C)c1 [Compound 377]	1			0.13 (≈ 0.147 µM)	0.13 (≈ 0.147 µM)	8 (≈ 9.06 µM)
CCCCCCCCCC(=O)N[C@@H](CCO)C(=O)N[C@@H](CCN)C(=O)N(C)[C@@H]1C(=O)N[C@@H](C)C(=O)N[C@H](C(=O)NCC#N)Cc2ccc(OCCN)c(c2)-c2cc1ccc2OCCN [Compound 378]	0.87	0.13 (≈ 0.146 µM)	24 (≈ 26.9 µM)	0.25 (≈ 0.28 µM)		
CCCCCCCCCC(=O)N[C@H](CCO)C(=O)N[C@@H](CCN)C(=O)N(C)[C@@H]1C(=O)N[C@@H](C)C(=O)N[C@H](C(=O)NCC#N)Cc2ccc(OCCN)c(c2)-c2cc1ccc2OCCN [Compound 379]	0.89	0.25 (≈ 0.28 µM)	32 (≈ 35.8 µM)	0.25 (≈ 0.28 µM)		
CCCCc1ccc(C(=O)N[C@H](CCO)C(=O)N[C@@H](CCN)C(=O)N(C)[C@@H]2C(=O)N[C@@H](C)C(=O)N[C@H](C(=O)NCC#N)Cc3ccc(OCCN)c(c3)-c3cc2ccc3OCCN)c(C)c1 [Compound 381]	2.9	0.5 (≈ 0.548 µM)	64 (≈ 70.1 µM)	0.5 (≈ 0.548 µM)		
CCCCCCCc1ccc(C(=O)N[C@@H](CO)C(=O)N[C@@H](CCN)C(=O)N(C)[C@@H]2C(=O)N[C@@H](C)C(=O)N[C@H](C(=O)NCC#N)Cc3ccc(OCCN)c(c3)-c3cc2ccc3OCCN)cc1 [Compound 383]	0.88	0.018 (≈ 0.0194 µM)	4 (≈ 4.31 µM)	0.023 (≈ 0.0248 µM)		
CCCCCCCCCCCC(=O)N[C@@H](CO)C(=O)N[C@@H](CCN)C(=O)N(C)[C@@H]1C(=O)N[C@@H](C)C(=O)N[C@H](C(=O)NCC#N)Cc2ccc(OCCN)c(c2)-c2cc1ccc2OCCN [Compound 384]	1.2	0.012 (≈ 0.0132 µM)	3 (≈ 3.31 µM)	0.031 (≈ 0.0342 µM)		
CCCCCCCSc1ccc(C(=O)N[C@@H](CCN)C(=O)N(C)[C@@H]2C(=O)N[C@@H](C)C(=O)N[C@H](C(=O)NCC#N)Cc3ccc(OCCN)c(c3)-c3cc2ccc3OCCN)c(C)c1 [Compound 389]	0.81			0.031 (≈ 0.035 µM)	0.063 (≈ 0.0711 µM)	0.25 (≈ 0.282 µM)
